Literature values in US12084601B2, “Packaging patches having disinfecting sealing layer” (AMCOR FLEXIBLES NORTH AMERICA, INC., priority 2017, dated 2024).

**Q.** What does the source list for [O][Cl+][O-] [chlorine dioxide]?
**A.** Half-life of chlorine dioxide degradation (first order kinetics) (ambient room light and temperature, depending on initial ClO2 concentration): 2 to 3 h; Time for chlorine dioxide concentration in the package to reach levels sufficiently low for safe opening (spontaneous degradation, prior packages): 12 to 48 h
